PMC10851555, “Safinamide, an inhibitor of monoamine oxidase, modulates the magnitude, gating, and hysteresis of sodium ion current” (BMC Pharmacology & Toxicology, 2024)
“And” between values parts separate entries of the source, which are not always exact repeats. Equal entries are not always repeated. Where two headings read alike, the source gives them in different places.

Columns and labels:
[1] = tested on: voltage-gated sodium ion (NaV) channels in pituitary GH3 cells; experiment: Persistent INa [INa(P)] and Hys(V) induced by upright isosceles-triangular Vramp (3.2 s) in GH3 cells; type: cell-based, rat; conditions: n = 7; for INa(P) amplitude at −10 mV [high-threshold Hys(V) loop]: control 175 ± 14 pA; for INa(P) amplitude at −80 mV [low-threshold Hys(V) loop]: control 288 ± 25 pA
Source text: We further investigated whether SAF exposure modulated the magnitude and Hys(V) behavior of INa(P) induced by an isosceles-triangular Vramp in GH3 cells. To record whole-cell currents, the test cells were maintained at −80 mV and subjected to an upright isosceles-triangular Vramp ascending from –110 and +50 mV over 3.2 s (digital-to-analog conversion; Fig. 8A). […] For example, when test cells were subjected to an isosceles-triangular Vramp over 3.2 s (ramp speed of 0.1 mV/ms), the INa(P) amplitudes measured at −10 mV (high threshold) and −80 mV (low threshold) during the control period were 175 ± 14 pA (n = 7) and 288 ± 25 pA (n = 7), respectively. After the addition of 3 and 10 μM SAF, the INa(P) amplitude at −10 mV [high-threshold Hys(V) loop] was 194 ± 17 pA (n = 7, P < 0.05) and 219 ± 18 pA (n = 7, P < 0.05), respectively; the corresponding amplitudes at −80 mV [low-threshold Hys(V) loop] were 348 ± 29 pA (n = 7, P < 0.05) and 389 ± 31 pA (n = 7, P < 0.05), respectively. […] These findings indicate the unique Hys(V) behavior of INa(P) induced by an isosceles-triangular Vramp in GH3 cells; SAF exposure may increase the strength of Hys(V).
Fig. 8 Stimulatory effects of SAF on the voltage-dependent hysteresis [Hys(V)] behavior of persistent INa [INa(P)] induced by upright isosceles-triangular Vramp. Vramp was supplied for 3.2 s (ramp speed of 0.1 mV/ms; digital-to-analog conversion) to induce Hys(V) behavior in GH3 cells. (A) Current traces during the control period (left) and during the exposure to 10 μM SAF (right). The blue and red traces shown in each panel represent currents induced by the upsloping (ascending) and downsloping (descending) limbs of the upright isosceles-triangular Vramp, respectively. The inset indicates the voltage protocol. The dashed arrows indicate the direction of the current trajectory over time. (B) Summary graphs illustrating the effects of SAF (3 and 10 μM), SAF plus MGB, and SAF plus Ran on the amplitude of Vramp-induced INa(P) measured at −10 mV (ascending limb; left side) and −80 mV (descending limb; right side).

[2] = tested on: voltage-gated sodium ion (NaV) channels in pituitary GH3 cells; experiment: Window INa [INa(W)] induced by ascending ramp voltage (−100 to +40 mV over 200 ms) in GH3 cells; type: cell-based, rat; conditions: for ∆G0 for gating of INa(W) activation at 0 mV: control 6.78 ± 1.1, ∆G0 = q × F × V1/2, n = 7
Source text: The sigmoidal relationship between Vramp-induced INa(W) and the upsloping Vramp (nonlinear current–voltage relationship) was investigated and fitted with the Boltzmann function as follows: [drawing 2]
where V is the membrane potential in millivolts, Erev is the reversal potential of INa, G is the INa conductance in nanosiemens, I is the current, Vh is the voltage at which half-maximal activation or inactivation of the current occurs, q is the apparent gating charge, F is Faraday’s constant, R is the universal gas constant, and T is the absolute temperature.
The free energy ∆G0 for the gating of INa(W) was determined by assuming a two-state gating model [equilibrium between closed (resting) and open states] of the NaV channel. The ∆G0 for the activation of INa(W) at 0 mV could be calculated as follows: q × F × V1/2 [45, 46]. The standard errors in ∆G0 ( [drawing 3] ) could be calculated as follows: […]
In the present study, we investigated whether the addition of SAF to GH3 cells modulates the magnitude of INa(W) induced by ascending Vramp. Test cells were maintained at −80 mV and subjected to Vramp ascending from −100 to +40 mV over 200 ms (i.e., ramp speed of 0.7 mV/ms) to induce INa(W). […] The ∆area values of INa(W) in the absence and presence of SAF and SAF plus Ran were calculated (Fig. 7B).
Fig. 7 Stimulatory effects of SAF on window INa [INa(W)] induced by an ascending ramp voltage Vramp in GH3 cells. For the experiments, the test cells were maintained at −80 mV and subjected to Vramp ranging from −100 to +40 mV over 200 ms (ramp speed of 0.7 mV/ms). (A) INa(W) trace in the absence (a, blue) and presence (b, red) of 10 μM SAF. The inset indicates the Vramp protocol, and the downward deflection indicates inward-directed current. The continuous gray lines corresponding to the untreated or SAF-treated (10 μM) cells were fitted (least-squares minimization) with the Boltzmann equation. The values of […] and q (apparent gating charge) induced by ascending Vramp over 200 ms in the absence (blue) of SAF were, respectively, −34 mV and 2.1 e; the corresponding values in the presence (red) of 10 μM SAF were −38 mV and 2.8 e, respectively. (B) Summary graph illustrating the effects of SAF (3 and 10 μM) and SAF (10 μM) plus Ran (10 μM) on the Δarea of INa(W) in GH3 cells (mean ± standard error of the mean; n = 7 for each point). The value of Δarea was measured at a voltage ranging from −80 and +40 mV, which corresponded to INa(W) induced by the ascending Vramp. […] (C) Summary graph illustrating the effects of SAF (3 and 10 μM) and SAF plus Ran (10 μM) on ΔG0 (mean ± standard error of the mean; n = 7 for each point). The estimation of ΔG0 for the induction of instantaneous INa(W) is described in the Materials and Methods section.

[3] = tested on: voltage-gated sodium ion (NaV) channels in pituitary GH3 cells; experiment: Whole-cell patch-clamp of INa induced by a 30-ms depolarizing pulse (−100 to −10 mV) in GH3 cells; type: cell-based, rat; conditions: for amplitude of INa(L) / amplitude of INa(T): 1 min after addition; for amplitude of INa(L): control 18 ± 3 pA; for amplitude of INa(T): control 512 ± 23 pA; for EC50: GH3 cells, modified Hill equation
[4] = set-up: method as in PMID 15082032; conditions: cited from earlier work

For `C[C@H](NCc1ccc(OCc2cccc(F)c2)cc1)C(N)=O` [SAF, (S)-2-((4-((3-fluorobenzyl)oxy)benzyl)amino)propanamide], the “INa(P) amplitude at −10 mV [high-threshold Hys(V) loop]” value ([1]; 3 μM SAF) was 194 ± 17 pA, the “INa(P) amplitude at −80 mV [low-threshold Hys(V) loop]” value ([1]; 3 μM SAF) was 348 ± 29 pA and the “INa(P) amplitude at −10 mV [high-threshold Hys(V) loop]” value ([1]; 10 μM SAF) was 219 ± 18 pA. For the same compound, the “INa(P) amplitude at −80 mV [low-threshold Hys(V) loop]” value ([1]; 10 μM SAF) was 389 ± 31 pA, the “∆G0 for gating of INa(W) activation at 0 mV” value ([2]; 3 μM SAF) was 2.11 ± 0.382 kcal/mol and the “q (apparent gating charge) of INa(W)” value ([2]; 10 μM SAF, absence of SAF 2.1 e) was 2.8 e. For the same compound, the “V1/2 (half-maximal activation voltage) of INa(W) induced by ascending Vramp (Boltzmann fit)” value ([2]; 10 μM SAF, absence of SAF −34 mV) was −38 mV, the “∆G0 for gating of INa(W) activation at 0 mV” value ([2]; 10 μM SAF) was 2.476 ± 0.43 kcal/mol and the “amplitude and strength (∆area) of INa(W)” value ([2]; within 1 min of SAF exposure) was “sharply increased”. For the same compound, the “amplitude of INa(L)” value ([3]; 10 μM SAF, n = 8) was 54 ± 9 pA, the “amplitude of INa(T)” value ([3]; 10 μM SAF, n = 8) was 1387 ± 131 pA and the “time constant of the fast component of INa(T) inactivation” value ([3]; 30 μM SAF) was “no evident change”. The “amplitude of INa(L)” value ([3]; 30 μM SAF, n = 8) was 106 ± 17 pA, the “amplitude of INa(T)” value ([3]; 30 μM SAF, n = 8) was 1991 ± 153 pA and the “time constant τinact(S), slow component of INa(T) inactivation” value ([3]; 30 μM SAF, control 5.1 ± 0.7 ms, n = 8) was 10.2 ± 1.1 ms. The “maximal conductance of INa” value ([3]; 10 mM SAF (so in the source)) was “increased”, the “sloping factor of the steady-state inactivation curve” value ([3]; 10 mM SAF (so in the source)) was “no change” and the “shift of steady-state inactivation curve of INa to the rightward direction” value ([3]; 10 mM SAF (so in the source), two-step voltage-clamp protocol, n = 7) was “approximately 14 mV”. For the same compound, the “half-maximal activation voltage of INa(T) (G–V relationship)” value ([3]; 3 or 10 μM SAF) was “shifted to more negative potentials”, the EC50 ([3]; current at beginning of 30-ms pulse −100 to −10 mV, read-out: EC50 for stimulation of transient INa [INa(T)]) was 27.1 µM and the EC50 ([3]; current at end of 30-ms pulse −100 to −10 mV, read-out: EC50 for stimulation of late INa [INa(L)]) was 4.8 µM. The “amplitude of INa(L) after the removal of SAF” value ([3]; washout, n = 8) was 20 ± 3 pA, the “amplitude of INa(T) after the removal of SAF” value ([3]; washout, n = 8) was 523 ± 24 pA and the maximal plasma concentration ([4]; single 2.5 mg/kg dose, 2.5 mg/kg) was “approximately 1000 ng/mL and ~3.3 μM”. For the same compound, the maximal plasma concentration ([4]; single 5.0 mg/kg dose, 5 mg/kg) was ~2500 ng/mL and ~8.3 μM and the maximal plasma concentration ([4]; single 10.0 mg/kg dose, 10 mg/kg) was ~5500 ng/mL and ~18.2 μM.
